Data taken from patent publication US20220265629A1, “TREATMENT OF SYSTOLIC DYSFUNCTION AND HEART FAILURE WITH REDUCED EJECTION FRACTION WITH THE COMPOUND (R)-4-(1-((3-(DIFLUOROMETHYL)-1-METHYL-1H-PYRAZOL-4-YL)SULFONYL)-1-FLUOROETHYL)-N-(ISOXAZOL-3-YL)PIPERIDINE-1-CARBOXAMIDE” (MyoKardia, Inc., priority 2019, published 2022).
≈ marks a conversion by molar mass, not a printed value. Read-outs that look alike come from different tables or passages of the source.

Columns and labels:
healthy volunteers = test: Food effect cross-over study, healthy volunteers: safety; format: in vivo, human
Procedure: ECG was performed as described in Example 1. The following intervals were measured: RR, PR, QRS, and QT. Heart rate (HR) was calculated as 60/(RR×1000) (with RR expressed in msec) and rounded to the nearest integer. Each individual ECG QT value was corrected for HR. The measured QT data was corrected for HR using the Fridericia method (QTcF) as per the following formulae/method (with QT, RR and QTc expressed in ms): […]
The Investigator or designee monitored the continuous ECG telemetry data and correlated the finding(s) with any other clinical findings, study participant's medical history, study participant's clinical status and laboratory data to determine the clinical importance of the finding.
Serum troponin-I concentrations were determined as described in Example 1. Abnormal and/or rising troponin values (as per Investigator's judgment and taking into account potential Baseline troponin elevation) led to the subject being clinically evaluated for possible myocardial ischemia. […] The entire clinical context would be evaluated (e.g., signs, symptoms, new ECG changes, new troponin, and CK-MB abnormalities) and correlated with any other relevant clinical findings, the subject's medical history, and laboratory data to determine the clinical significance of the findings.

[1] = tested on: patients with stable HFrEF; test: HFrEF study Part 1 (SAD Cohorts 1 and 2): safety (TEAEs, troponin, ECG, Holter); format: in vivo, human
Procedure: Safety and efficacy assessments were conducted by measuring patients' vital signs and laboratory parameters; performing TTE to measure, e.g., systolic ejection time; performing electrocardiograms (e.g., 12-lead ECG), real-time ECG telemetry (e.g., at least 3-lead), and Holter ECG; and measuring levels of troponin (e.g., troponin I and/or troponin T) and […].
The following safety laboratory parameters were measured: (1) hematology parameters (CBC, including differential count, and platelet count); (2) serum chemistry parameters (e.g., sodium, potassium, chloride, bicarbonate, calcium, magnesium, urea, creatinine, ALP, ALT, AST, total bilirubin, glucose, and CPK); and (3) urinalysis parameters (e.g., pH, protein, glucose, leukocyte esterase, and blood).
Abnormal and/or rising troponin values (as per investigator's judgment and taking into account potential baseline troponin elevation frequently observed in heart failure) led to the patient being clinically evaluated for possible myocardial ischemia. […] The entire clinical context (e.g., signs, symptoms, new ECG changes, new troponin, and CK-MB abnormalities) was evaluated and correlated with any other relevant clinical findings, patient's medical history, and laboratory data to determine the clinical significance of the findings. Troponin results performed on Day 2 of Part 1 (SAD) and Day 10 of Part 2 (MAD) at a local lab were reviewed prior to the patient being discharged the next day.

[2] = Physicochemical and biopharmaceutical properties of the drug substance (PBPK model input); details: for blood plasma ratio: blood and plasma
From the text: A PBPK mechanistic absorption model was developed by integrating (1) physicochemical and biopharmaceutical properties obtained from in vitro experimental measurements or in silico estimates based on chemical structure using ADMET Predictor (version 7.2) in GastroPlus (Version 9.6); (2) formulation properties of the drug product such as drug substance particle size distribution, formulation type, and rate of release or dissolution; (3) compartmental model kinetic parameters such as systemic clearance, volume of distribution, and inter-compartmental rate constants; and (4) gut physiology parameters such as gastro-intestinal (GI) transit time, pH, absorptive surface area, compartment dimensions and fluid content. The preexisting physiological parameters in GastroPlus (Version 9.6) for American healthy volunteers and beagle dogs under fasted conditions were used without modification.

[3] = Single ascending oral dose study in healthy volunteers: urinary excretion and renal clearance; format: in vivo, human; details: for CL renal: human, plasma and urine
Procedure: The concentrations of Compound I in human plasma and urine were quantitated by high performance liquid chromatography with tandem mass spectrometric detection (LC MS/MS) (Biological sample analysis study report Alturas AD17-726). Plasma samples were extracted by protein precipitation with acetonitrile containing internal standard MYK-5654. The calibration curves were linear over concentration range of 0.500 to 1000 ng/mL with a lower limit of quantification (LLOQ) of 0.500 ng/mL.
The PK Population included all subjects who received Compound I. Blood samples were collected for PK assessments. The actual timing of the samples may have been modified and/or up to an additional 2 samples may have been requested by the SRC after review of the data from previous cohorts. It was important that PK sampling occurred as closely as possible to the scheduled time (±10%). Both blood and urine samples were used for PK assessments.

[4] = crystalline free-base drug substance

Compound: Cn1cc(S(=O)(=O)[C@@](C)(F)C2CCN(C(=O)Nc3ccon3)CC2)c(C(F)F)n1 [Compound I, (R)-4-(1-((3-(difluoromethyl)-1-methyl-1H-pyrazol-4-yl)sulfonyl)-1-fluoroethyl)-N-(isoxazol-3-yl)piperidine-1-carboxamide]
- troponin-I (healthy volunteers; 200 mg, fasted or fed state): No increase
- abnormal ECG results (healthy volunteers; 200 mg, fasted state): 3 (30.0%)
- headache (healthy volunteers; 200 mg, fasted state): 4 subjects
- abnormal ECG results (healthy volunteers; 200 mg, fed state): 2 (20.0%)
- headache (healthy volunteers; 200 mg, fed state): 1 subject
- tolerability (healthy volunteers; single dose of 200 mg): well-tolerated
- TEAE Any SOC, any PT, % ([1]; 175 mg (n = 8)): (25.0) %
- TEAE Dyspnea, % ([1]; 175 mg (n = 8)): (12.5) %
- TEAE Fatigue, % ([1]; 175 mg (n = 8)): (12.5) %
- TEAE Infusion site discomfort, % ([1]; 175 mg (n = 8)): (12.5) %
- TEAE Urinary tract infection, % ([1]; 175 mg (n = 8)): (12.5) %
- TEAE Any SOC, any PT, % ([1]; 350 mg (n = 8)): (62.5) %
- TEAE Bursitis, % ([1]; 350 mg (n = 8)): (12.5) %
- TEAE Diarrhoea, % ([1]; 350 mg (n = 8)): (12.5) %
- TEAE Hypomagnesemia, % ([1]; 350 mg (n = 8)): (12.5) %
- TEAE Oral contusion, % ([1]; 350 mg (n = 8)): (12.5) %
- TEAE Proteinuria, % ([1]; 350 mg (n = 8)): (12.5) %
- TEAE Anemia, % ([1]; 400 mg Split Dose (n = 4)): (25.0) %
- TEAE Any SOC, any PT, % ([1]; 400 mg Split Dose (n = 4)): (75.0) %
- TEAE Neck pain, % ([1]; 400 mg Split Dose (n = 4)): (25.0) %
- TEAE Orthostatic hypotension, % ([1]; 400 mg Split Dose (n = 4)): (25.0) %
- TEAE Ventricular extrasystoles, % ([1]; 400 mg Split Dose (n = 4)): (25.0) %
- TEAE Any SOC, any PT, % ([1]; 550 mg Split Dose (n = 2)): (50.0) %
- TEAE Cardiac discomfort, % ([1]; 550 mg Split Dose (n = 2)): 50.0%
- TEAE Dyspnea, % ([1]; 550 mg Split Dose (n = 2)): (50.0) %
- TEAE Troponin increase, % ([1]; 550 mg Split Dose (n = 2)): (50.0) %
- maximum troponin I level (one subject) ([1]; 550 mg, 24 hours post-dose, 4×ULN): 0.12 ng/mL
- TEAE Anemia, % ([1]; Total Active (n = 12)): (8.3) %
- TEAE Any SOC, any PT, % ([1]; Total Active (n = 12)): (83.3) %
- TEAE Bursitis, % ([1]; Total Active (n = 12)): (8.3) %
- TEAE Cardiac discomfort, % ([1]; Total Active (n = 12)): (8.3) %
- TEAE Diarrhoea, % ([1]; Total Active (n = 12)): (8.3) %
- TEAE Diverticulitis, % ([1]; Total Active (n = 12)): (8.3)- %
- TEAE Dyspnea, % ([1]; Total Active (n = 12)): (8.3) %
- TEAE Fatigue, % ([1]; Total Active (n = 12)): (8.3) %
- TEAE Hypomagnesemia, % ([1]; Total Active (n = 12)): (8.3) %
- TEAE Infusion site discomfort, % ([1]; Total Active (n = 12)): (8.3) %
- TEAE Neck pain, % ([1]; Total Active (n = 12)): (8.3) %
- TEAE Oral contusion, % ([1]; Total Active (n = 12)): (8.3) %
- TEAE Orthostatic hypotension, % ([1]; Total Active (n = 12)): (8.3) %
- TEAE Proteinuria, % ([1]; Total Active (n = 12)): (8.3) %
- TEAE Troponin increase, % ([1]; Total Active (n = 12)): (8.3) %
- TEAE Urinary tract infection, % ([1]; Total Active (n = 12)): (8.3) %
- TEAE Ventricular extrasystoles, % ([1]; Total Active (n = 12)): (8.3) %
- QTcF (study ECGs) ([1]; all patients): no signal for QTcF increase
- Holter monitoring: atrial ectopy, atrial fibrillation, ventricular ectopy, NSVT runs ([1]; compared to placebo): no signal
- active-treatment periods with transient troponin increase (3/30) ([1]; doses from 175 to 550 mg): 10%
- subjects with transient troponin increase (3/12) ([1]; doses from 175 to 550 mg): 25%
- safety and tolerability ([1]; single-ascending doses 175 to 550 mg): safe and generally well-tolerated
- Biopharmaceutics Classification System (BCS) class [2]: Class II
- solubility ([2]; aqueous buffer, 37° C., across pH 1.2-9.6): ~43 µg/mL (≈ 98.8 µM)
- blood plasma ratio ([2]; Dog, in vitro measured, read-out: B:P (Dog), ratio of concentration of drug in blood to plasma): 0.8
- blood plasma ratio ([2]; Human, in vitro measured, read-out: B:P (Human), ratio of concentration of drug in blood to plasma): 0.85
- hygroscopicity [2, 4]: nonhygroscopic
- solubility in aqueous media [2, 4]: practically insoluble
- Papp ([2]; human, Caco-2, in vitro measured, read-out: Permeability, Caco-2): 17.9 ×10⁻⁶ cm/s
- logD ([2]; pH 7.4, Measured): 3.07
- dose recovered in 0-48 hours urine ([3]; 350 mg): approximately 6.0%
- dose recovered in 0-48 hours urine ([3]; 525 mg): ~8.6%
- CL renal ([3]; oral, all doses, read-out: renal clearance, mean (converted)): 9.5 mL/min
- CL renal ([3]; po, 350 mg, 350 mg dose group, read-out: renal clearance, mean (SD) (converted)): 5.55 mL/min
- CL renal ([3]; po, 525 mg, 525 mg dose group, read-out: renal clearance, mean (SD) (converted)): 13.3 mL/min
- CL renal ([3]; po, all doses, read-out: renal clearance, individuals range): 2.95 to 23.3 mL/min
- CL renal ([3]; po, all doses, read-out: renal clearance, mean (converted)): ~9.5 mL/min
